Patent US6894033B2, “Combination therapies using vitamin B12 and therapeutic agents for treatment of viral, proliferative and inflammatory diseases” (Transition Therapeutics Inc., priority 2001, dated 2005)
Read-outs that look alike come from different tables or passages of the source.

Legend:
[1] = test system: Mouse ascite astrocytoma cells; details: overnight, no treatment 0.8955
Experimental: Mouse ascite astrocytoma cells were seeded in a 96-well plate and grown to 60% confluence in standard growth conditions.
96® AQueous One Solution Cell Proliferation Assay was used as a colorimetric method for determining the number of viable cells in proliferations. […] 96® AQueous One Solution Reagent directly to culture wells, incubating for 1-4 hours and then recording absorbance at 490 nm with a 96 well plate reader. The quantity of formazan product as measured by the amount of 490 nm absorbance is known in the art to be directly proportional to the number of living cells in the culture.

[2] = rabbits; doses up to 100 mg/kg body weight; cited from earlier work
[3] = mice; doses up to 1 g/kg body weight; cited from earlier work
[4] = test system: Herpes Simplex Virus Type 2 (HSV-2); assay: CPE inhibition assay in MRC-5 cells, HSV-2; format: cell-based
[5] = test system: Human Hepatitis B Virus (HBV); assay: HBV DNA copies in HepG2.2.15 culture medium by Lightcycler real-time PCR; format: cell-based; details: for Antiviral effect on HBV (HBV DNA copies): HepG2.2.15, 9 days
Experimental: HepG2.2.15 cells, a cell line that was stably transfected with HBV genome, were cultured in RPMI-1640 with fetal bovine serum at either 2 or 4% final concentration and with no antibiotics. The cells were seeded in a 96-well plate at a density of 2×10^4 cells/well and grown overnight. […] Triplicate samples were measured for each concentration. The cells were incubated at 37° C. for 9 days. Drug/medium was changed daily. On day 9, the culture media containing released HBV virions were harvested and used to extract HBV DNA.
HBV DNA from drug-treated HepG2.2.15 cell culture media was extracted using QIAmp DNA mini kit—blood and body fluid spin column according to manufacturer's instructions. Briefly, 10 μl of QIAGEN proteinase K was added to 1.5 ml Eppendorf tube. 50 μl cell supernatant and 50 μl AL buffer were added to the tube. The samples were incubated at 56° C. water bath for 3 h. At the end of incubation, 50 μl ethanol was added to the sample. The mixture was transferred to a QIAamp spin column and centrifuged at 14000 rpm for 1 min. The filtrate was discarded. 50 μl Buffer AW1 was then added to the column and centrifuged at 14000 rpm for 1 min. Following washing and recentrifugation, DNA was eluted in 50 μl dH2O.
HBV DNA was detected by real-time PCR using Lightcycler assay. The reaction was performed in 20 μl, comprising the following: 6.4/4.8 μl dH2O, 2 μl 25 mM MgCl2, 1 μl 10 μM sense primer, 1 μl 10 μM antisense primer, 8/1.6 μl LightCycler Probe (fluorescein-labeled, 5 μM), 0.8/1.6 μl LightCycler Probe 2 (LC Red 640-labeled, 10 μM), 2 μl LC FastStart DNA Master Hyb Probes, 1 μl uracil DNA glycosylase.
PCR mix was aliquoted into glass capillaries and 5 μl DNA template was then added to the PCR mix. A range of HBV plasmid DNA (1×10^8, 1×10^7, 1×10^6, . . . , 1×10^2, 25 copies) was used as standards for quantitative analysis.
The antiviral effects of the test compounds were calculated using DNA copy numbers as an endpoint. Specifically, the antiviral activities were calculated based on the following formula: Antiviral effect=(Ccontrol−Ctest)/Ccontrol whereby the Ccontrol is the HBV DNA copies in the control wells (without drug); the Ctest is the HBV DNA copies in the test wells with a given concentration of a test compound.
The enhancing or antagonistic effect was analyzed mathematically using the median effect equation (Chou and Talalay, 1984) by computer software CalcuSyn (Biosoft, St. Louis).

[6] = test system: Vesticular Stomatitis Virus (VSV); format: cell-based; details: MRC-5; for Anti-viral activity (protection of CPE) / viral activity, VSV: vitamin B12 = hydroxocobalamin (HC)
[7] = test system: ND4 mouse model; assay: Clinical signs in the ND4 demyelinating transgenic mouse model; format: in vivo; details: ND4 mice; for mean clinical scores / clinical signs (FIG. 5): intraperitoneal, paclitaxel alone 20 mg/kg once a week, vitamin B12 10 mg/kg once a week, combination with paclitaxel 5 mg/kg three times per week
From the text: (§1) In this model, the severity of the clinical signs increased until a maximum around 6 months with animals dying around 8 to 9 months of age. Clinical signs assessed included general shaking, seizures, head jerk, hind limb and tail shiver, wobbly gait and limp tail. The scale of zero (absence) to four (constant and uncontrollable movements) was used for each of the clinical signs.
All treatments began when the mice reached 3 months of age at which time signs of demyelinating disease were evident. Treatment was stopped at time of sacrifice.
Treatment was started when the animals were 3 months of age and continued for 11 weeks. The animals were evaluated twice a week for clinical signs and the scores were averaged on a weekly basis. Refer to example 1 for more experimental details.
as §1, with “The” for “In this model, the”, “increase” for “increased”, “include” for “included”
Mice (4 animals per group) were treated with vitamin B12 (cyanocobalamin) alone at a dose of 15 mg/kg, weekly and in combination with P-16. P-16 was administered alone and in combination with vitamin B12 at a dose of 1 mg/kg, tri-weekly. All treatments began when the mice reached 3 months of age at which time signs of demyelinating disease were evident. Treatment was stopped at time of sacrifice.
The ND4 transgenic mice received one of the following treatments through intraperitoneal injections: 1) paclitaxel (TAXOL®) at a dose of 20 mg/kg once a week; 2) vitamin B12 at a dose of 10 mg/kg once a week and paclitaxel (TAXOL®) at a dose of 5 mg/kg three times per week; and 3) vitamin B12 at a dose of 10 mg/kg once a week. All treatments started when the mice reached 3 months of age, at which time signs of demyelinating disease were evident.

[8] = Toxicity in the applicant's animal studies; format: in vivo; details: concentrations of 15 mg/kg of vitamin B12 in mice
[9] = test system: GFAP; assay: GFAP in brain of EAE mice (immunohistochemistry, slot blot of homogenates); format: in vivo, mouse
Experimental: EAE mice were treated as described previously in Example 2. After the various treatments, the mice were sacrificed and brain sections removed for GFAP staining and quantitation. The brain region of hippocampus, adjacent to the dentate gyrus was fixed in formalin, paraffin-embedded and sectioned at 5 μm. Immunohistochemistry with anti-GFAP antibody was used to stain for GFAP.
In addition, quantification of GFAP within the brains of normal, EAE untreated and EAE treated mice was carried out to provide a more precise level of protein expression. Whole brain homogenates were assayed for GFAP by slot blot. Brains were homogenized in a buffer containing 50 mM Tris-HCl pH 7.6, 0.5 mM DTT, 1 mM EDTA, and 0.43 mM PMSF. The homogenate was centrifuged at 11000 rpm for 30 min at 4° C. The pellet was isolated and resuspended in a buffer containing 10 mM sodium phosphate pH 7.5, 2 mM DTT, 6 mM urea and 1 mM EDTA. Samples were loaded onto the slot blot apparatus (BioDot, Biorad) under vacuum. The blots were reacted with anti-GFAP antibodies and then a secondary antibody. The blots were developed and the relative amounts of each band quantified.

[10] = test system: GFAP; assay: GFAP in brain of ND4 mice (immunohistochemistry, slot blot of homogenates); format: in vivo, mouse; details: Vitamin B12 15 mg/kg, Normal 1.0, untreated ND4 4.4
From the text: After the various treatments, the mice were sacrificed and brain sections removed for GFAP staining and quantitation. The brain region of hippocampus, adjacent to the dentate gyrus was fixed in formalin, paraffin-embedded and sectioned at 5 μm. Immunohistochemistry with anti-GFAP antibody was used to stain for GFAP. Glial fibrillary acidic protein was a protein expressed by astrocytes (particularly reactive astrocytes) and was used as a marker for these cells.
In addition, quantification of GFAP within the brains of normal, ND4 untreated and ND4 treated mice was carried out to provide a more precise level of protein expression. Whole brain homogenates were assayed for GFAP by slot blot. Brains were homogenized in a buffer containing 50 mM Tris-HCl pH 7.6, 0.5 mM DTT, 1 mM EDTA, and 0.43 mM PMSF. The homogenate was centrifuged at 11000 rpm for 30 min at 4° C. The pellet was isolated and resuspended in a buffer containing 10 mM sodium phosphate pH 7.5, 2 mM DTT, 6 mM urea and 1 mM EDTA. Samples were loaded onto the slot blot apparatus (BioDot, Biorad) under vacuum. The blots were reacted with anti-GFAP antibodies and then a secondary antibody. The blots were developed and the relative amounts of each band quantified.

[11] = Vitamin B12 (methylcobalamin) 25 μg/ml
[12] = HC 1 μg/ml, fraction (ODTest−OD0)/(ODControl−OD0)

C/C1=C2/[N-][C@H]([C@H](CC(N)=O)[C@@]2(C)CCC(=O)NC[C@H](C)OP(=O)([O-])O[C@H]2[C@@H](O)[C@@H](n3cnc4cc(C)c(C)cc43)O[C@@H]2CO)[C@]2(C)N=C(/C(C)=C3N=C(/C=C4N=C1[C@@H](CCC(N)=O)C\4(C)C)[C@@H](CCC(N)=O)[C@]\3(C)CC(N)=O)[C@@H](CCC(N)=O)[C@]2(C)CC(N)=O.[CH3-].[Co+3] [vitamin B12 (methylcobalamin), methylcobalamin]
Measure of Proliferative Activity (Absorbance at 490 nm) [1, 11]: decrease in proliferative activity

C/C1=C2/[N-][C@H]([C@H](CC(N)=O)[C@@]2(C)CCC(=O)NC[C@@H](C)OP(=O)([O-])O[C@H]2[C@@H](O)[C@@H](n3cnc4cc(C)c(C)cc43)O[C@@H]2CO)[C@]2(C)N=C(/C(C)=C3N=C(/C=C4N=C1[C@@H](CCC(N)=O)C\4(C)C)[C@@H](CCC(N)=O)[C@]\3(C)CC(N)=O)[C@@H](CCC(N)=O)[C@]2(C)CC(N)=O.[Co+3].[OH-] [HC, hydroxocobalamin]
acute toxicity [2]: no toxicities were observed
acute toxicity [3]: no toxicities were observed
Antiviral effect on HSV-2 (CPE inhibition) [4, 12]: 0.014
Antiviral effect on HSV-2 (CPE inhibition) ([4]; HC 10 μg/ml, fraction): 0.032
Antiviral effect on HSV-2 (CPE inhibition) ([4]; HC 100 μg/ml, fraction): 0.056
Antiviral effect on HSV-2 (CPE inhibition) ([4]; HC 500 μg/ml, fraction): 0.166
Antiviral effect on HSV-2 (CPE inhibition) ([4]; HC 1000 μg/ml, fraction): 0.210
Antiviral effect on HBV (HBV DNA copies) ([5]; HC 1 μg/ml, fraction (Ccontrol−Ctest)/Ccontrol): 0.001
Antiviral effect on HBV (HBV DNA copies) ([5]; HC 10 μg/ml, fraction): 0.001
Antiviral effect on HBV (HBV DNA copies) ([5]; HC 100 μg/ml, fraction): 0.001
Antiviral effect on HBV (HBV DNA copies) ([5]; HC 500 μg/ml, fraction): 0.112
Antiviral effect on VSV (CPE inhibition) [6, 12]: ≤ 0.001
Antiviral effect on VSV (CPE inhibition) ([6]; HC 10 μg/ml, fraction): ≤ 0.001
Antiviral effect on VSV (CPE inhibition) ([6]; HC 100 μg/ml, fraction): 0.039
Antiviral effect on VSV (CPE inhibition) ([6]; HC 500 μg/ml, fraction): ≤ 0.001
Antiviral effect on VSV (CPE inhibition) ([6]; HC 1000 μg/ml, fraction): 0.002

CSTMMSRSHKTRSHHV (Synthetically generated peptide) [P-16]
clinical signs of MS (FIG. 3) ([7]; P-16 1 mg/kg tri-weekly, vitamin B12 (cyanocobalamin) 15 mg/kg weekly): attenuation of clinical signs

interferon-alpha
Antiviral effect on HSV-2 (CPE inhibition) ([4]; interferon 5 IU/ml, fraction): 0.093
Antiviral effect on HSV-2 (CPE inhibition) ([4]; interferon 10 IU/ml, fraction): 0.139
Antiviral effect on HSV-2 (CPE inhibition) ([4]; interferon 50 IU/ml, fraction): 0.218
Antiviral effect on HSV-2 (CPE inhibition) ([4]; interferon 100 IU/ml, fraction): 0.282
Antiviral effect on HSV-2 (CPE inhibition) ([4]; interferon 500 IU/ml, fraction): 0.271
Anti-viral activity (protection of CPE) / viral activity, VSV [6]: significantly increased
Antiviral effect on VSV (CPE inhibition) ([6]; interferon 5 IU/ml, fraction): 0.296
Antiviral effect on VSV (CPE inhibition) ([6]; interferon 10 IU/ml, fraction): 0.387
Antiviral effect on VSV (CPE inhibition) ([6]; interferon 50 IU/ml, fraction): 0.950
Antiviral effect on VSV (CPE inhibition) ([6]; interferon 100 IU/ml, fraction): 0.996
Antiviral effect on VSV (CPE inhibition) ([6]; interferon 500 IU/ml, fraction): 0.942

cyanocobalamin [Vitamin B12]
toxicity in animals [8]: no toxicity has been found
Measure of Proliferative Activity (Absorbance at 490 nm) [1, 11]: 0.2985
mean clinical scores / clinical signs (FIG. 5) [7]: significant attenuation of mean clinical scores
clinical signs of MS (FIG. 1) ([7]; vitamin B12 (cyanocobalamin) 15 mg/kg weekly, interferon-beta 1a 5000 IU tri-weekly, from 3 months of age): attenuation of clinical signs
viral activity (HBV) ([5]; HepG2.2.15, vitamin B12 = hydroxocobalamin (HC)): not
Relative Amount of GFAP (+/−SD) ([9]; EAE brain homogenates, Vitamin B12 15 mg/kg, Normal 1.0, untreated EAE 4.2): 4.2 +/− 0.2
levels of activated astrocytes and levels of GFAP ([9]; EAE mice treated as in Example 2): not effective in decreasing the levels of GFAP
Relative Amount of GFAP (+/−SD) [10]: 2.8 +/− 0.1
Anti-viral activity (protection of CPE) / viral activity, VSV [6]: significantly increased

CC(=O)O[C@H]1C(=O)[C@@]2(C)[C@H]([C@H](OC(=O)c3ccccc3)[C@]3(O)C[C@H](OC(=O)[C@H](O)[C@@H](NC(=O)c4ccccc4)c4ccccc4)C(C)=C1C3(C)C)[C@]1(OC(C)=O)CO[C@@H]1C[C@@H]2O [paclitaxel]
mean clinical scores / clinical signs (FIG. 5) [7]: significant attenuation of mean clinical scores

B1: Mouse Interferon-beta: mouse interferon-beta used on mouse astrocytoma cells (protein, UniProt P01575 22-182, looked up)
Interferon beta: INYKQLQLQERTNIRKCQELLEQLNGKINLTYRADFKIPMEMTEKMQKSYTAFAIQEMLQNVFLVFRNNFSSTGWNETIVVRLLDELHQQTVFLKTVLEEKQEERLTWEMSSTALHLKSYYWRVQRYLKLMKYNSYAWMVVRAEIFRNFLIIRRLTRNFQN
Measure of Proliferative Activity (Absorbance at 490 nm) ([1]; Mouse Interferon-beta 500 IU/ml): 0.3855
Measure of Proliferative Activity (Absorbance at 490 nm) ([1]; Mouse Interferon-beta 500 IU/ml, listed as mice interferon-beta): decrease in proliferative activity
